Test results reported in patent publication US20100137136A1, “HERBICIDE/SAFENER COMBINATION” (BAYER CROPSCIENCE AG, priority 2008, published 2010).

Legend:
Format in all cases: in vivo
[1] = test system: Wheat (Triso); assay: Pre-emergence herbicidal effect and safener effect, wheat; settings: for % Reduction: reduction of effect by safener
Source text: (§1) Seeds or rhizome pieces of mono- and dicotyledonous weed plants and crop plants were planted in peat pots in sandy loam and covered with earth. The herbicide/safener active ingredient combinations according to the invention, formulated as water-soluble powders or suspensions, and, in parallel experiments, the correspondingly formulated individual active ingredients were then applied to the surface of the covering earth at an application rate of 600 to 800 l of water/ha (converted) in a variety of dosages.

[2] = test system: Corn (Aventura); assay: Post-emergence herbicidal effect and safener effect, corn; settings: for % Reduction: reduction of effect by safener
Experimental: (§2) Seeds or rhizome pieces of mono- and dicotyledonous harmful plants and of crop plants are planted in peat pots in sandy loam, covered with earth and grown in a greenhouse under good growth conditions. Alternatively to this, harmful plants occurring in the paddy rice cultivation are cultivated in pots in which water stands up to 2 cm above the soil surface. 10 to 20 days after sowing, the test plants are treated in the one to three-leaf stage. The herbicide/safener active ingredient combinations according to the invention, formulated as water-soluble powders or suspensions, and, in parallel experiments, the correspondingly formulated individual active ingredients are sprayed onto the green plant parts in various dosages using an application rate of 300 l of water/ha (converted) and, after the test plants have remained in the greenhouse under optimum growth conditions for 2-3 weeks, the effect of the preparations is scored visually in comparison with untreated controls. In the case of rice or in the case of harmful plants which occur in the rice cultivation, the active ingredients are also placed directly into the irrigation water (application analogous to the so-called granules application) or sprayed onto plants and into the irrigation water.

[3] = test system: Barley (Adonis); assay: Post-emergence herbicidal effect and safener effect, barley; settings: herbicide 20 g a.i./ha, no safener, scored visually vs untreated controls
Experimental: as §2

[4] = test system: Corn (Aventura); assay: Pre-emergence herbicidal effect and safener effect, corn; settings: for % effect (with safener) / % Reduction: herbicide I-2 80 g a.i./ha + safener 200 g a.i./ha; for % Reduction: reduction of effect by safener
Source text: as §1

[5] = test system: Rice (Ballila); assay: Post-emergence herbicidal effect and safener effect, rice; settings: for % effect (with safener) / % Reduction: herbicide I-2 80 g a.i./ha + safener 200 g a.i./ha; for % Reduction: reduction of effect by safener
Experimental: as §2

[6] = test system: Wheat (Triso); assay: Post-emergence herbicidal effect and safener effect, wheat; settings: for % effect (with safener) / % Reduction: herbicide I-2 20 g a.i./ha + safener 50 g a.i./ha; for % Reduction: reduction of effect by safener
Experimental: as §2

[7] = herbicide I-2 20 g a.i./ha + safener 50 g a.i./ha
[8] = herbicide I-2 80 g a.i./ha alone
[9] = herbicide I-2 20 g a.i./ha alone
[10] = herbicide I-2 80 g a.i./ha + safener 200 g a.i./ha

## CC1(C)OC(c2ccco2)CN1C(=O)C(Cl)Cl (racemic) [Compound S3-10, (RS)-3-dichloroacetyl-5-(2-furyl)-2,2-dimethyloxazolidine]
[1]; [7]
  % effect (with safener): 10%
  % Reduction: 67%
[2]; [7]
  % effect (with safener): 20%
  % Reduction: 50%

## COC(=O)c1nc(C2CC2)cc(N)c1Cl [Compound I-2, methyl 4-amino-3-chloro-6-cyclopropyl-2-pyridinecarboxylate]
[3]
  % effect (without safener): 20%
[4]; [8]
  % effect (without safener): 35%
[1]; [9]
  % effect (without safener): 30%
[1]; [8]
  % effect (without safener): 30%
[5]; [8]
  % effect (without safener): 30%
[2]; [9]
  % effect (without safener): 40%
[2]; [8]
  % effect (without safener): 40%
[6]; [9]
  % effect (without safener): 20%

## CCCCCC(C)OC(=O)COc1ccc(Cl)c2cccnc12 (stereo not drawn) [Compound S2-1, 1-methylhexyl(5-chloro-8-quinolinoxy)acetate]
[1]; [10]
  % effect (with safener): 20%
  % Reduction: 33%
[5]
  % effect (with safener): 10%
  % Reduction: 67%
[2]; [7]
  % effect (with safener): 20%
  % Reduction: 50%

## CC1COc2ccccc2N1C(=O)C(Cl)Cl (stereo not drawn) [Compound S3-4, 4-dichloroacetyl-3,4-dihydro-3-methyl-2H-1,4-benzoxazine]
[2]; [10]
  % effect (with safener): 10%
  % Reduction: 75%

## FC(F)(F)C(=NOCC1OCCO1)c1ccc(Cl)cc1 [Compound S11-2, 1-(4-chlorophenyl)-2,2,2-trifluoro-1-ethanone O-(1,3-dioxolan-2-ylmethyl)oxim]
[1]; [7]
  % effect (with safener): 20%
  % Reduction: 33%

## O=C(O)c1nc(C(Cl)(Cl)Cl)n(-c2ccc(Cl)cc2Cl)n1 [Fenchlorazole]
[1]; [7]
  % effect (with safener): 10%
  % Reduction: 67%

## CCOC(=O)C1=NOC(c2ccccc2)(c2ccccc2)C1 [Isoxadifen-ethyl, ethyl 5,5-diphenyl-2-isoxazoline-carboxylate]
[4]
  % effect (with safener): 25%
  % Reduction: 29%
[1]; [7]
  % effect (with safener): 10%
  % Reduction: 67%
[5]
  % effect (with safener): 20%
  % Reduction: 33%
[2]; [10]
  % effect (with safener): 20%
  % Reduction: 50%
[6]
  % effect (with safener): 0%
  % Reduction: 100%

## CCOC(=O)C1=NN(c2ccc(Cl)cc2Cl)C(C)(C(=O)OCC)C1 (stereo not drawn) [Mefenpyr-diethyl, ethyl 1-(2,4-dichlorophenyl)-5-(ethoxycarbonyl)-5-methyl-2-pyrazoline-3-carboxylate]
[4]
  % effect (with safener): 20%
  % Reduction: 43%
[1]; [7]
  % effect (with safener): 20%
  % Reduction: 33%
[2]; [7]
  % effect (with safener): 20%
  % Reduction: 50%
[6]
  % effect (with safener): 0%
  % Reduction: 100%
